In PMC12696353, “Structural insights into endogenous agonist selectivity of aminergic receptors from the octopamine β2 receptor” (PNAS Nexus, 2025):
Read-outs that look alike come from different tables or passages of the source.

Biological target: is-octβ2R V111^3.33A mutant (Ixodes scapularis, UniProt A0ACM8E5E8, V111A)
Assay: TGFα shedding assay, mutant V111^3.33A
Type: cell-based
Description: The TGFα shedding assay was performed as previously described ([28]). […] The cells were transfected using lipofectamine 2000 with plasmids encoding alkaline phosphatase–tagged TGFα (AP-TGFα) (2.5 ng/mL), is-octβ2Rs (1 ng/mL), and Gαq/s (0.5 ng/mL). After 24 h, the cells were washed with phosphate-buffered saline and resuspended in Hank's balanced salt solution (HBSS) (supplemented with 5 mM HEPES [pH 7.4]). The cells (90 μL/well) were plated in a 96-well plate and incubated with 10 μL of HBSS solution containing various concentrations of compounds for 1 h at 37 °C. Following centrifugation (200 × g, 2 min), 80 μL of the supernatant was transferred to a separate 96-well plate. Subsequently, 80 µL of 2× para-nitrophenyl phosphate (pNPP) buffer (containing 10 mM pNPP in 40 mM Tris–HCl [pH 9.5], 40 mM NaCl, and 10 mM MgCl2) was added to both the supernatant and cell-containing plates. The optical density at 405 nm of both plates was measured before and after a 1 h incubation at room temperature using a microplate reader (SpectraMax iD3, Molecular Devices, San Jose, CA, United States). AP-TGFα release was calculated using the following formulas:
ΔOD405=OD450(1h)−OD405(0h)AP−TGFαinsupernatant(%)=(ΔOD405Sup/[ΔOD450Sup+ΔOD405Cell])×125AP−TGFαrelease(%)=AP−TGFαinsupernatantunderastimulatedcondition(%)−AP−TGFαinsupernatantunderavehicle−treatedcondition […]

Chain of is-octβ2R V111^3.33A mutant (A0ACM8E5E8 1-384 V111A): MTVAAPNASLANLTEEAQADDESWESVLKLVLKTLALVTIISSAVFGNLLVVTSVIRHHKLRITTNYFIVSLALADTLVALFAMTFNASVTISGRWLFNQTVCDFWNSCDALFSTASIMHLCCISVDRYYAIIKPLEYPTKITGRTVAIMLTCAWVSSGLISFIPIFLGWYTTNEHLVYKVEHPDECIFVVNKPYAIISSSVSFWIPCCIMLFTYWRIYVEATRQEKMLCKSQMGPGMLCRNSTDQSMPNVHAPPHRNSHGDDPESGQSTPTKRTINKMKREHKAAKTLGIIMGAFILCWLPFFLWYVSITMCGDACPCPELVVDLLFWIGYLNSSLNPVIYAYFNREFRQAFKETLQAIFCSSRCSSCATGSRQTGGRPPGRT

Work on `CN/C=N/c1ccc(C)cc1C` [DPMF, N-2,4-dimethylphenyl-N′-methylformamidine] yielded an EC50 (Table S6, read-out: logEC50 (converted)) of 251 nM and an EC50 (read-out: EC50) of 320 nM.
